# Assay: Compound was evaluated for inhibition of hormone stimulated Adenylate cyclase activity in N18TG2 membranes.
row,SMILES,EC50
1,O=C(c1cccc2ccccc12)c1cn(CCN2CCOCC2)c2cc(N=C=S)ccc12 [[6-Isothiocyanato-1-(2-morpholin-4-yl-ethyl)-1H-indol-3-yl]-naphthalen-1-yl-methanone],1100 nM
2,O=C(c1cccc2ccccc12)c1cn(CCN2CCOCC2)c2ccccc12,275 nM
3,Cc1c(C(=O)c2ccc(N=C=S)c3ccccc23)c2ccccc2n1CCN1CCOCC1 [(4-Isothiocyanato-naphthalen-1-yl)-[2-methyl-1-(2-morpholin-4-yl-ethyl)-1H-indol-3-yl]-methanone],3000 nM
4,Cc1c(C(=O)c2cccc3ccccc23)c2ccccc2n1CCN1CCOCC1,370 nM
